The text below walks through data of PubChem BioAssay (NCI).

Values joined by “and” are separate entries in the source; they are usually repeats but may differ in a detail not shown here. Identical values can stand only once.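 Five compound concentrations were applied to cells in 96-well plates for 48 hours; endpoints were derived by simple linear interpolation of the resulting dose-response curve. The concentration for 50% growth inhibition is given as GI50. Definition used: TGI = concentration required for complete inhibition of growth.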 Bounds are passed on as bounds.

Test systems include A498 renal; DU-145 prostate; HL-60(TB) leukemia; MALME-3M melanoma; NCI-H460 lung; OVCAR-5 ovarian; SF-539 CNS; SR leukemia; T-47D breast; UACC-257 melanoma.
What all share (experiment): DTP human tumour cell line panel, 48 h

Regarding `CC(=O)Nc1cccc(-n2c(=O)n(C3CC3)c(=O)c3c(Nc4ccc(I)cc4F)n(C)c(=O)c(C)c32)c1`, the GI50 with A498 renal is < 0.01 µM and 0.00596 µM; with DU-145 prostate it was 3.36 µM and > 4.01 µM; in the assay on HL-60(TB) leukemia it was < 0.01 µM and 0.00141 µM; in the assay on MALME-3M melanoma it was < 0.01 µM and 0.00164 µM; with NCI-H460 lung, 3.19 µM and > 4.26 µM; in the assay with OVCAR-5 ovarian, < 0.01 µM and 0.00472 µM. The GI50 is 1.15 µM and > 3.69 µM with SF-539 CNS; 3.65 µM and > 10 µM in the assay on SR leukemia; 14.9 µM and > 10 µM with T-47D breast; < 0.01 µM and 0.00182 µM in the assay with UACC-257 melanoma. Further, the TGI in the assay on A498 renal is < 0.0306 µM and 0.0672 µM; in the assay on DU-145 prostate it was 93.9 µM and > 10 µM; with HL-60(TB) leukemia, over 41.7 µM; in the assay on MALME-3M melanoma, under 0.01 µM; in the assay on NCI-H460 lung, over 93.6 µM; with OVCAR-5 ovarian it was 29.8 µM and > 10 µM. The total growth inhibition concentration (TGI) in the assay with SF-539 CNS is 22.1 µM and > 10 µM; in the assay on SR leukemia, 45.6 µM and > 10 µM; with T-47D breast it was over 77 µM; in the assay on UACC-257 melanoma, < 0.01 µM and 0.0126 µM.
For `O=C(NNc1nc2c(F)cccc2n2cccc12)c1cnccn1`, the GI50 is 2.18 µM in the assay on A498 renal; 0.657 µM in the assay on DU-145 prostate; 0.409 µM in the assay on HL-60(TB) leukemia; 1.63 µM with MALME-3M melanoma; 0.331 µM in the assay with NCI-H460 lung; 1.51 µM with OVCAR-5 ovarian. In addition, the GI50 was 0.487 µM with SF-539 CNS, 0.392 µM with SR leukemia, 0.509 µM with T-47D breast and 1.15 µM with UACC-257 melanoma. Besides, the TGI with A498 renal was 10.3 µM; with DU-145 prostate, 24.9 µM; in the assay with HL-60(TB) leukemia, 4.74 µM; in the assay with MALME-3M melanoma, over 77.1 µM; in the assay with NCI-H460 lung it was 11 µM; in the assay with OVCAR-5 ovarian it was over 61.1 µM. Further, the total growth inhibition concentration (TGI) in the assay with SF-539 CNS is 14.5 µM; in the assay on SR leukemia, over 37.7 µM; in the assay with T-47D breast, over 34.3 µM; in the assay on UACC-257 melanoma, 8.31 µM.
As for `O=C(CSc1nc2ccc([N+](=O)[O-])cc2[nH]1)Nc1ccc(F)c(Cl)c1`, the GI50 is 1.11 µM with A498 renal; 3.24 µM in the assay on DU-145 prostate; 2.21 µM in the assay on HL-60(TB) leukemia; 1.75 µM with MALME-3M melanoma; 2.87 µM in the assay with NCI-H460 lung; 2.65 µM in the assay on OVCAR-5 ovarian. The GI50 in the assay with SF-539 CNS was 3 µM; in the assay on SR leukemia, 3 µM; in the assay on T-47D breast, 1.11 µM; with UACC-257 melanoma it was 1.54 µM. Moreover, the TGI was found to be 3.6 µM in the assay with A498 renal; 13.4 µM with DU-145 prostate; 6.26 µM with HL-60(TB) leukemia; 6.96 µM with MALME-3M melanoma; 11.3 µM in the assay on NCI-H460 lung; 11.5 µM with OVCAR-5 ovarian. Also, the TGI is 11.4 µM in the assay on SF-539 CNS, over 37.3 µM in the assay with SR leukemia, 10.2 µM in the assay with T-47D breast and 6.32 µM in the assay with UACC-257 melanoma.
With `CCc1c2c(nc3cc4c(cc13)OCO4)-c1cc3c(c(=O)n1C2)COC(=O)[C@]3(O)CC`, the GI50 is 0.0097 µM and 0.0397 µM in the assay with A498 renal; under 0.001 µM in the assay on HL-60(TB) leukemia; 0.289 µM with MALME-3M melanoma; under 0.001 µM with NCI-H460 lung; 0.885 µM and 0.313 µM with OVCAR-5 ovarian; under 0.001 µM in the assay with SF-539 CNS. The GI50 was under 0.001 µM in the assay on SR leukemia; under 0.001 µM with T-47D breast; 0.135 µM and 0.194 µM with UACC-257 melanoma. Besides, the TGI with A498 renal was 0.428 µM and 0.834 µM; with DU-145 prostate, over 100 µM; with MALME-3M melanoma, over 100 µM; with NCI-H460 lung it was 1.09 µM and 0.617 µM; in the assay with OVCAR-5 ovarian, 2.27 µM; in the assay with SF-539 CNS, 0.0505 µM. Besides, in the assay with UACC-257 melanoma, the TGI was 2.04 µM and 2.71 µM.
Consider `C=C1C(=O)O[C@H]2[C@H]1CC/C(CNC(=O)c1c[nH]c3ccc(F)cc13)=C\CC[C@@]1(C)O[C@@H]21`, for which the GI50 is 1.99 µM in the assay on A498 renal; 1.09 µM with DU-145 prostate; 2.18 µM in the assay with HL-60(TB) leukemia; 1.41 µM in the assay with MALME-3M melanoma; 3.43 µM in the assay with NCI-H460 lung; 1.9 µM in the assay on OVCAR-5 ovarian. In addition, the GI50 was 1.37 µM with SF-539 CNS, 1.01 µM in the assay with SR leukemia, 1.36 µM in the assay with T-47D breast and 2.06 µM in the assay on UACC-257 melanoma. Also, the TGI with A498 renal was found to be 11.9 µM; with DU-145 prostate, 2.35 µM; in the assay on HL-60(TB) leukemia it was 5.95 µM; in the assay with MALME-3M melanoma it was 3.3 µM; with NCI-H460 lung it was 14.8 µM; with OVCAR-5 ovarian, 4.82 µM. In addition, the TGI was determined as 2.81 µM in the assay with SF-539 CNS, 4.78 µM in the assay with SR leukemia, 5.03 µM in the assay on T-47D breast and 4.89 µM with UACC-257 melanoma.
On to `C[C@@H]1CC[C@@H]2[C@@H]1[C@H](OC(=O)/C=C/c1ccccc1)[C@]1(c3ccccc3)C[C@@H](OC(=O)CO)[C@@]2(C)O1`, for which the 50% growth inhibitory concentration (GI50) in the assay on A498 renal was 0.189 µM; in the assay with DU-145 prostate, 15.9 µM; in the assay on HL-60(TB) leukemia, 14.9 µM; in the assay on MALME-3M melanoma, 16.5 µM; with NCI-H460 lung it was 16.3 µM; with OVCAR-5 ovarian it was 15.5 µM. Besides, the GI50 in the assay on SF-539 CNS is 14.6 µM; in the assay on SR leukemia it was 5.86 µM; in the assay on T-47D breast, 6.67 µM; in the assay with UACC-257 melanoma, 21.1 µM. The TGI with A498 renal was determined as 0.585 µM; with DU-145 prostate it was 33.8 µM; with HL-60(TB) leukemia it was 53.9 µM; in the assay on MALME-3M melanoma it was 31.4 µM; with NCI-H460 lung, 38.6 µM; in the assay on OVCAR-5 ovarian it was 34.5 µM. Besides, the TGI was 28.3 µM in the assay on SF-539 CNS, 38.8 µM in the assay with SR leukemia, 21.2 µM with T-47D breast and 43.1 µM with UACC-257 melanoma.
With `Oc1ccccc1/C=N/Nc1ccc2ccccc2n1`, the GI50 with A498 renal is 7.03 µM; in the assay on DU-145 prostate it was 6.53 µM; in the assay with HL-60(TB) leukemia it was 2.44 µM; with MALME-3M melanoma it was 8.18 µM; in the assay on NCI-H460 lung, 3.38 µM; in the assay with OVCAR-5 ovarian it was 8.31 µM. Further, the GI50 in the assay on SF-539 CNS was 3.5 µM; with SR leukemia, 4.35 µM; with T-47D breast it was 3.83 µM; in the assay on UACC-257 melanoma, 3.14 µM. Also, the TGI with A498 renal was over 100 µM; in the assay with DU-145 prostate, over 100 µM; in the assay on HL-60(TB) leukemia it was over 100 µM; in the assay with MALME-3M melanoma it was over 100 µM; in the assay on NCI-H460 lung, 20.3 µM; with OVCAR-5 ovarian it was over 100 µM. The TGI in the assay with SF-539 CNS is 59.4 µM; with SR leukemia, over 100 µM; with T-47D breast, over 100 µM; in the assay on UACC-257 melanoma, 9.57 µM.
On to `O=C(CCN1CCN(c2cnc3ccccc3n2)CC1)c1csc2ccccc12`, for which the GI50 in the assay with A498 renal is 47.4 µM; in the assay with DU-145 prostate, 29.5 µM; with HL-60(TB) leukemia it was 35.2 µM; with MALME-3M melanoma it was 24.9 µM; with NCI-H460 lung, over 100 µM; with OVCAR-5 ovarian it was over 100 µM. The GI50 is 29.3 µM with SF-539 CNS, 36.1 µM in the assay on SR leukemia, 18.2 µM in the assay with T-47D breast and over 100 µM in the assay with UACC-257 melanoma. The TGI in the assay on A498 renal was over 100 µM; with DU-145 prostate, over 100 µM; in the assay with HL-60(TB) leukemia it was over 100 µM; in the assay with MALME-3M melanoma, 69.1 µM; in the assay on NCI-H460 lung it was over 100 µM; in the assay with OVCAR-5 ovarian, over 100 µM. In addition, the TGI was 77.9 µM in the assay with SF-539 CNS, over 100 µM in the assay with SR leukemia, 43.4 µM in the assay on T-47D breast and over 100 µM with UACC-257 melanoma.
Turning to `O=C(c1cccs1)c1c(C(F)(F)F)n([O-])c2ccccc2[n+]1=O`, the GI50 was 0.79 µM with A498 renal; 0.695 µM in the assay on DU-145 prostate; 0.25 µM in the assay with HL-60(TB) leukemia; 0.85 µM in the assay on MALME-3M melanoma; 0.234 µM in the assay on NCI-H460 lung; 1.04 µM with OVCAR-5 ovarian. For the same molecule, the results for the GI50 with SF-539 CNS, with SR leukemia and with T-47D breast were 1.11 µM, 2.56 µM and 4.38 µM, respectively. For the same molecule, the TGI was found to be 2.4 µM with A498 renal; 1.34 µM in the assay on DU-145 prostate; 0.966 µM in the assay with HL-60(TB) leukemia; 2.53 µM in the assay with MALME-3M melanoma; 0.597 µM in the assay on NCI-H460 lung; 2.49 µM in the assay on OVCAR-5 ovarian. For the same molecule, the values for the TGI in the assay with SF-539 CNS, with SR leukemia and with T-47D breast were 3.42 µM, 6.03 µM and 11.2 µM, respectively.
Consider `COc1c(C2CC(=O)Nc3c2cnn3Cc2ccco2)cc2c(c1OC)OCO2` (stereo not given), for which the GI50 with A498 renal was 0.21 µM; in the assay on DU-145 prostate, 0.522 µM; in the assay on HL-60(TB) leukemia, 0.301 µM; in the assay on MALME-3M melanoma, 0.441 µM; in the assay with NCI-H460 lung, 0.401 µM; in the assay with OVCAR-5 ovarian, 4.7 µM. Further, the GI50 in the assay with SF-539 CNS is 0.434 µM; in the assay on SR leukemia it was 0.437 µM; with T-47D breast, 0.45 µM. Besides, the TGI with A498 renal is 0.932 µM; with DU-145 prostate, 24.6 µM; in the assay with MALME-3M melanoma, over 100 µM; in the assay on NCI-H460 lung, over 100 µM; with OVCAR-5 ovarian, over 100 µM; in the assay on SF-539 CNS, 4.36 µM. The TGI in the assay with SR leukemia and with T-47D breast was over 100 µM throughout.
In the case of `CSc1nc(SC)c2c(CN=[N+]=[N-])c(Br)n(Cc3ccccc3)c2n1`, the TGI in the assay with A498 renal, with DU-145 prostate, in the assay on HL-60(TB) leukemia, in the assay with MALME-3M melanoma, in the assay with NCI-H460 lung and in the assay on OVCAR-5 ovarian was over 100 µM each time. Besides, the TGI in the assay with SF-539 CNS, in the assay with SR leukemia and with T-47D breast was over 100 µM each time.
